According to patent US20120178667A1, “METHODS FOR TREATING SEPTIC SHOCK” (THE GOVERNMENT OF THE UNITED STATES OF AMERICA, dba THE …, priority 2006, published 2012):

Legend:
[1] = test system: TLR-dependent signaling; conditions: in vitro; cited from earlier work
[2] = test system: HC-NPC co-cultures; assay: Inflammatory mediators in LPS-stimulated HC-NPC co-cultures; assay type: cell-based; conditions: stimulated with LPS
[3] = test system: murine bEND.3 endothelial cell line; assay: LPS-induced MIP-2 and IL-6 production by endothelial cells (ELISA of supernatants); assay type: cell-based; conditions: 15 μg/well or 20 μg/well peptide, 15 min pre-treatment, LPS 12.5 ng/well, 4-hour supernatants
Protocol: FIG. 1 is a set of bar graphs showing P13 inhibition of macrophage inflammatory protein (MIP)-2 and interleukin (IL)-6. Murine endothelial cell line bEND.3 (2×10^5 cells/48-well plate) were pre-treated for 15 minutes with P13 or scrambled control peptide at matching peptide concentrations (15 or 20 μg/well) and then with LPS (12.5 ng/well). MIP-2 and IL-6 were quantified by ELISA from 4-hour cell-free supernatants. Cytokine values represent means +/−S.D. from quadruplicate wells/experimental condition.
Quantification of cytokines from cell supernatants. IL-6 and MIP-2 ELISA kits were used to assay cytokine levels in cell culture supernatants according to the protocols provided by the manufacturer (R&D Systems, Minneapolis, Minn.).
Because endothelial cells can be activated and even damaged in response to LPS exposure, the effect of treatment with peptide P13 on LPS-induced cytokine responses from the murine bEND.3 endothelial cell line was examined. Treatment of the bEND cells with LPS induced secretion of MIP-2 and IL-6.

[4] = test system: animals treated with low dose LPS plus D-GaLN; assay: Survival after low dose LPS plus D-GaLN; assay type: in vivo
[5] = test system: BALB/c mice; assay: LPS-induced serum TNF-α and soluble ICAM-1 in mice (ELISA); assay type: in vivo; conditions: serum 2 hours after LPS
Protocol: FIG. 2 is a set of bar graphs showing P13 inhibition of serum inflammatory mediators. BALB/c mice were injected intraperitoneally (i.p.) with 5 mg/kg LPS and 30 minutes later injected i.p. with P13 (15, 50, or 75 μg) or PBS. Two hours after LPS injection, serum was collected and TNF-α and soluble ICAM-1 were quantified by ELISA. Values represent means +/−S.D.
Serum cytokines and soluble ICAM-1. BALB/c female mice were injected intraperitoneally (i.p.) with 5 mg/kg of LPS and peptide P13 (15, 50, or 75 μg) or PBS was injected i.p. 30 minutes later. Two hours after injection of LPS, serum was collected and TNF-α and soluble ICAM-1 quantified by ELISA (R&D Systems).
To determine the effect of peptide treatment on the induction of serum inflammatory mediators, mice were injected with a sub-lethal high dose of LPS and 30 minutes later with P13 or phosphate buffered saline (PBS). Serum was collected 2 hours after treatment with LPS. TNF-α and soluble ICAM-1 were quantified by ELISA. […] The effect of delayed peptide P13 treatment at different doses of peptide on LPS-induced production of soluble ICAM-1 was examined.

[6] = test system: BALB/c mice; assay: LPS-induced sepsis model, lethality after high dose LPS; assay type: in vivo; conditions: LPS 70 mg/kg i.p.; peptide 75 μg s.c. at 2 and 6 hours after LPS
Protocol: FIG. 3 is a line graph illustrating decreased mortality in P13-treated mice after high dose LPS. BALB/c mice were injected i.p. with LPS (70 mg/kg) and 2 and 6 hrs later treated s.c. with P13 or control peptide (75 μg/mouse/injection). The mice (10 animals/group) were monitored every 3-4 hours for lethality, and the experiment was terminated after 96 hrs.
LPS-induced sepsis. Female BALB/c mice were injected i.p. with 70 mg/kg of LPS. At 2 and 6 hours after injection of LPS, mice were treated with scrambled control peptide or peptide P13. The peptides were administered subcutaneously at 75 μg/animal/injection time, with 10 mice/treatment group. The mice were monitored every 3-4 hours and the experiment was terminated after 96 hours.
As P13 inhibited production of inflammatory mediators in vivo, an LPS-induced murine sepsis model was used to determine the effect of peptide P13 on survival. Mice were injected with lethal dose of LPS (70 mg/kg) and treated 2 and 6 hours later with scrambled control peptide (75 μg) or a matching concentration of peptide P13. […] The experiment was terminated at 96 hours and P13 treated mice remained at 40% survival (FIG. 3). These studies confirm the in vivo activity of peptide P13 to reduce lethality in an LPS sepsis model even when peptide treatment is initiated after administration of LPS.

| Substance | inhibition of TLR-dependent signaling [1] | production of inflammatory mediators [2] | inhibition of IL-6 production [3] | inhibition of MIP-2 production [3] | survival [4] | inhibition of serum TNF-α ([5]; 50 μg i.p. 30 min after 5 mg/kg LPS i.p.) | inhibition of serum TNF-α ([5]; 75 μg i.p. 30 min after 5 mg/kg LPS i.p.) | lethality at 36 hours [6] | lethality at 74 hours [6] | survival at 96 hours [6] |
| --- | --- | --- | --- | --- | --- | --- | --- | --- | --- | --- |
| DIVKLTVYDCI-RRRRRRRRR (listed as Vaccinia virus) [P13, A52R amino acids 125 to 135 linked to nine arginines] | capable of in vitro inhibition | reduced the production of inflammatory mediators | > 90% | > 90% | enhance survival | did not reduce | significant inhibition | 60% | 60% | 40% |
| ITCVDVDLIYK-RRRRRRRRR (ITCVDVDLIYKRRRRRRRRR; listed as Vaccinia virus) [scrambled control peptide, scrambled control of P13 with nine arginines, reference compound] | – | – | only modest inhibition | only modest inhibition | – | – | – | 90% | 100% | – |
